According to the NIST ThermoML archive (doi:10.1016/j.fluid.2017.01.019):

Assays:
[1] = 101.33 kPa, Liquid; for viscosity: Falling or rolling sphere viscometry; for speed of sound: Sing-around technique in a fixed-path interferometer; for mass density: Vibrating tube method
[2] = xn = mol fraction of the nth substance listed; conditions: 100 kPa, Liquid, x2 = 0; for mass density: Vibrating tube method; for viscosity: Falling or rolling sphere viscometry; for speed of sound: Frequency=3 MHz, Sing-around technique in a fixed-path interferometer

CCOS(=O)(=O)[O-].CCn1cc[n+](C)c1 [1-ethyl-3-methylimidazolium ethyl sulfate]
[1]
Conditions	mass density [kg/m3]	speed of sound [m/s]	viscosity [mPa·s]
298.15 K	1236.33	1682.3	96.21
303.15 K	1232.93	1670	75.89
308.15 K	1229.57	1657.9	60.73
313.15 K	1226.21	1645.9	49.38
318.15 K	1222.87	1634.1	40.93
323.15 K	1219.54	1622.3	33.82

CCCCO [butan-1-ol]
[1]
Conditions	mass density [kg/m3]	speed of sound [m/s]	viscosity [mPa·s]
298.15 K	806.27	1239.8	2.61
303.15 K	802.42	1223.2	2.31
308.15 K	798.536	1206.3	2.07
313.15 K	794.617	1189.7	1.85
318.15 K	790.655	1173.1	1.66
323.15 K	786.645	1156.5	1.5

CCCCO [butan-1-ol] + CCOS(=O)(=O)[O-].CCn1cc[n+](C)c1
[2]
Conditions	mass density [kg/m3]	speed of sound [m/s]	viscosity [mPa·s]
289.15 K	806.27	–	–
298.15 K	–	1241.1	2.61
303.15 K	802.42	1224.3	2.31
308.15 K	798.536	1207.5	2.07
313.15 K	794.617	1190.9	1.85
318.15 K	790.655	1174.2	1.66
323.15 K	786.645	1157.6	1.5

CO [methanol]
[1]
Conditions	mass density [kg/m3]	speed of sound [m/s]	viscosity [mPa·s]
298.15 K	786.884	1103.3	0.55
303.15 K	782.158	1086.9	0.51
308.15 K	777.414	1070.6	0.48
313.15 K	772.64	1054.5	0.45
318.15 K	767.844	1038.5	0.43
323.15 K	763.028	1022.5	0.41

CO [methanol] + CCCCO
[2]
Conditions	mass density [kg/m3]	speed of sound [m/s]	viscosity [mPa·s]
293.15 K	–	–	0.55
298.15 K	786.884	1103.3	–
303.15 K	782.158	1086.9	0.51
308.15 K	777.414	1070.6	0.48
313.15 K	772.64	1054.5	0.45
318.15 K	767.844	1038.5	0.43
323.15 K	763.028	1022.5	0.41

CO [methanol] + CCOS(=O)(=O)[O-].CCn1cc[n+](C)c1
[2]
Conditions	mass density [kg/m3]	speed of sound [m/s]	viscosity [mPa·s]
298.15 K	786.884	–	0.55
303.15 K	782.158	1086.9	0.51
308.15 K	777.414	1070.6	0.48
313.15 K	772.64	1054.5	0.45
318.15 K	767.844	1038.5	0.43
323.15 K	763.028	1022.5	0.41
